Experimental data taken from BindingDB's records for doi:10.1016/s0960-894x(01)00313-4 (Cor Therapeutics, 2001).

Molecular target: P2Y purinoceptor 12 (Homo sapiens, UniProt Q9H244)
Assay: ChEBML_162514
Source text: Ability to displace [3H]2-MeS-ADP from human Purinergic receptor P2Y12

P2Y purinoceptor 12, sequence (Q9H244 whole entry): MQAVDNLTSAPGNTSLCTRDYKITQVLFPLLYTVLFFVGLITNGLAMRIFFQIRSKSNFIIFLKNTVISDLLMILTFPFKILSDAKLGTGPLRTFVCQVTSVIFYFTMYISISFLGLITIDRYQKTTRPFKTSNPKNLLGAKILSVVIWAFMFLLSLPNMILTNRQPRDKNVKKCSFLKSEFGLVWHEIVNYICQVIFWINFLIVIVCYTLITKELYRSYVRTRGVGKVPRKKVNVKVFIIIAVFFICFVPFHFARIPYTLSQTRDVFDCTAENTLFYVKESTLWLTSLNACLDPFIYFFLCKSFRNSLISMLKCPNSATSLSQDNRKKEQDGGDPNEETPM

Row | Structure (SMILES) | IC50 [µM]
1 | O=C(CS(=O)(=O)Nc1nc2ccc(Cl)cc2s1)C1C(=O)N2C(=NS1(=O)=O)Sc1cc(Cl)ccc12 (stereo unspecified) [2-(7-Chloro-4-hydroxy-2,2-dioxo-2H-2lambda*6*,9-dithia-1,4a-diaza-fluoren-3-yl)-2-oxo-ethanesulfonic acid (6-chloro-benzothiazol-2-yl)-amide] | 35
2 | O=C(CS(=O)(=O)Nc1nc2ccc([N+](=O)[O-])cc2s1)C1=C([O-])[n+]2c(sc3cc([N+](=O)[O-])ccc32)NS1(=O)=O [2-(4-Hydroxy-7-nitro-2,2-dioxo-2H-2lambda*6*,9-dithia-1,4a-diaza-fluoren-3-yl)-2-oxo-ethanesulfonic acid (6-nitro-benzothiazol-2-yl)-amide] | 35
3 | O=C(CS(=O)(=O)Nc1nc2ccc(C3CCCCC3)cc2s1)C1C(=O)N2C(=NS1(=O)=O)Sc1cc(C3CCCCC3)ccc12 (stereo unspecified) [2-(7-Cyclohexyl-4-hydroxy-2,2-dioxo-2H-2lambda*6*,9-dithia-1,4a-diaza-fluoren-3-yl)-2-oxo-ethanesulfonic acid (6-cyclohexyl-benzothiazol-2-yl)-amide] | > 120
4 | O=C1CS(=O)(=O)N=C2Sc3cc(OC(F)(F)F)ccc3N12 [2,2-Dioxo-7-trifluoromethoxy-2H-2lambda*6*,9-dithia-1,4a-diaza-fluoren-4-ol] | > 120

Next, values leading:

Row | IC50 [µM] | Structure (SMILES)
5 | > 50 | O=C(CS(=O)(=O)Nc1nc2ccc(Oc3ccccc3)cc2s1)C1C(=O)N2C(=NS1(=O)=O)Sc1cc(Oc3ccccc3)ccc12 (stereo unspecified) [2-(4-Hydroxy-2,2-dioxo-7-phenoxy-2H-2lambda*6*,9-dithia-1,4a-diaza-fluoren-3-yl)-2-oxo-ethanesulfonic acid (6-phenoxy-benzothiazol-2-yl)-amide]
6 | > 50 | O=C(CS(=O)(=O)Nc1nc2ccc(-c3ccccc3)cc2s1)C1C(=O)N2C(=NS1(=O)=O)Sc1cc(-c3ccccc3)ccc12 (stereo unspecified) [2-(4-Hydroxy-2,2-dioxo-7-phenyl-2H-2lambda*6*,9-dithia-1,4a-diaza-fluoren-3-yl)-2-oxo-ethanesulfonic acid (6-phenyl-benzothiazol-2-yl)-amide]
